Data on two molecules can be found in ChEMBL document CHEMBL1134156, “Design, synthesis and preliminary evaluation of novel 3'-substituted carboxycyclopropylglycines as antagonists at group 2 metabotropic glutamate receptors” (Bioorg Med Chem Lett, 2001).

For test [1], the target named is Metabotropic glutamate receptor 3 (Rattus norvegicus, UniProt P31422). As to the kind of experiment: Compound was evaluated for the inhibition of binding of [3H]glutamate against rat recombinant Metabotropic glutamate receptor 3 expressed in HEK293 cells. The test is classed as cell-based.
Chain of Metabotropic glutamate receptor 3 (P31422 whole entry): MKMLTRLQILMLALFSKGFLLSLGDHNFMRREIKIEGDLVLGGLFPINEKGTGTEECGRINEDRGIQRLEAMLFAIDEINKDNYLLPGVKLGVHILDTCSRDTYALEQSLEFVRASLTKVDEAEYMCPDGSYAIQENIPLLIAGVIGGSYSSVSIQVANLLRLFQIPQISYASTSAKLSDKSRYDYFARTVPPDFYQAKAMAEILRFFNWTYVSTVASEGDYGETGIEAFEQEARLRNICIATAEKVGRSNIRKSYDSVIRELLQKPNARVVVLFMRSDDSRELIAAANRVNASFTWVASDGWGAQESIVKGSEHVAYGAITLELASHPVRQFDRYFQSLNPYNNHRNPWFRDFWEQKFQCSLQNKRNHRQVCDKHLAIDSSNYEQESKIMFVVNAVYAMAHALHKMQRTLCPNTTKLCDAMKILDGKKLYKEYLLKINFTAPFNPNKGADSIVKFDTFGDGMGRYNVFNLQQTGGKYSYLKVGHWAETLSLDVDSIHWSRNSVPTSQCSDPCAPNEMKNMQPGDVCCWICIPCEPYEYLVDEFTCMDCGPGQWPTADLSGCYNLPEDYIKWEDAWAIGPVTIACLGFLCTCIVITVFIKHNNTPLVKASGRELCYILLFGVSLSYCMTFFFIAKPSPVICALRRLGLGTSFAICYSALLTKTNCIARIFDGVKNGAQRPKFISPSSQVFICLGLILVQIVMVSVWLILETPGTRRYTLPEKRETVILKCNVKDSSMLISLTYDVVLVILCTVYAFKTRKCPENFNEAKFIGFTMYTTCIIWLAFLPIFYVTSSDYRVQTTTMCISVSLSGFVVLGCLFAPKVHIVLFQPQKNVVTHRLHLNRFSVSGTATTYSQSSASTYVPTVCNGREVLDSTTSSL
The target in test [2] is Metabotropic glutamate receptor 2 (Homo sapiens, UniProt Q14416). The test can be described thus: Antagonistic activity against stimulation of GTP (gamma) 35 S binding by glutamate in membranes from CHO cells expressing human Metabotropic glutamate receptor 2. In kind it is cell membranes.
Chain of Metabotropic glutamate receptor 2 (Q14416 whole entry): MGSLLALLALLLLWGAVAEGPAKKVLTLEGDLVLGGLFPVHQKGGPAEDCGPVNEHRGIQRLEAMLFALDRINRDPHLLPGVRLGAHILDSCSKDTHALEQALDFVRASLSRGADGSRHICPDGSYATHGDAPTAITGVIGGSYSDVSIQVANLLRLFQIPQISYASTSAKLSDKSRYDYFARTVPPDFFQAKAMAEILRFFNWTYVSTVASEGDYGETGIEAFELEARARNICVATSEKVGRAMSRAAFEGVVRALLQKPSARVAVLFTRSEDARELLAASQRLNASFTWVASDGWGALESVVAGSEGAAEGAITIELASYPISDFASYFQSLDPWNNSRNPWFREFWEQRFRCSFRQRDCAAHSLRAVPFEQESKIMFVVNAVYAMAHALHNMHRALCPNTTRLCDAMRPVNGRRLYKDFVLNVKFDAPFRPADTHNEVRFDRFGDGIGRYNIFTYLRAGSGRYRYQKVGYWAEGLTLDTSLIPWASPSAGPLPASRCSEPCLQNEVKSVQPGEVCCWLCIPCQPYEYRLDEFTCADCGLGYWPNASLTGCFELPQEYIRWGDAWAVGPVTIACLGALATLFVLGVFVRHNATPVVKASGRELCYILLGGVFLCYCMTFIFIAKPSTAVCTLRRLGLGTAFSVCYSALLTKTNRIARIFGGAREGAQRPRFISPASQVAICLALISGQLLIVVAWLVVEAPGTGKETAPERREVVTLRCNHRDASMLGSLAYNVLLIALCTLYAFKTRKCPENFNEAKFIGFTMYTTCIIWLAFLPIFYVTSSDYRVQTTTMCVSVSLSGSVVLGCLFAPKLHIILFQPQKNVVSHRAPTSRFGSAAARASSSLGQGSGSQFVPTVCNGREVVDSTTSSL
The nature of test [3]: Effect of compound on GluR mediated phosphoinositol metabolisim at conc of 10 uM of GluR1b. The test is classed as functional.
A short description of test [4]: Effect of compound on GluR mediated phosphoinositol metabolisim at conc of 10 uM of mGluR5a. In kind it is functional.
Test [5] can be described thus: Effect of compound on GluR mediated phosphoinositol metabolisim at conc of 50 uM of GluR1b. In kind it is functional.
Test [6] is described as follows: Effect of compound on GluR mediated phosphoinositol metabolisim at conc of 50 uM of mGluR5a. In kind it is functional.
Test [7] can be described thus: Hill coefficient was determined.

Where “and” joins values, the source holds several entries; their conditions need not be identical. Identical values can stand only once.

By IC50 is commonly meant the concentration needed to halve the response being measured. For orientation: Ki means the equilibrium dissociation constant of an inhibitor or competing ligand from its target. Low readings indicate tighter binding, high ones weaker binding. As a reminder, the Hill coefficient is the slope factor of the fitted curve.

On to `NC(C(=O)O)[C@H]1[C@@H](CC2c3ccccc3Oc3ccccc32)[C@@H]1C(=O)O` (stereo not given in full), for which the concentration for half-maximal inhibition (IC50) in test [1] was 1300 nM. This molecule displayed a Ki in test [2] of 2700 nM. For the same molecule, the Activity came to 131% in test [3], 101% in test [4], 95% in test [5] and 94% in test [6]. In addition, in test [7], the Hill coefficient was 0.93 and 0.78.
In the case of `NC(C(=O)O)[C@H]1[C@@H](CCC2c3ccccc3Oc3ccccc32)[C@@H]1C(=O)O` (stereo not given in full), the IC50 in test [1] was 75 nM; in test [2] it was 200 nM. This molecule also displayed a Ki in test [2] of 85 nM. Besides, the Activity is 110% in test [3], 103% in test [4], 111% in test [5] and 91% in test [6]. The Hill coefficient in test [7] was 0.92 and 1.09.
